Data reported in paper PMC7002685, “Inhibition of vascular calcification by inositol phosphates derivatized with ethylene glycol oligomers” (Nature Communications, 2020).
Where “and” joins values, the source holds several entries; their conditions need not be identical. Identical values can stand only once.

Legend:
[1] = system: transformation of CPP1 to CPP2 in pooled human serum; test: In vitro serum calcification propensity (T50) screening assay; type: biochemical; design: key to T50: T50 in minutes (time to 50% CPP phase transition); settings: for T50: one value per experiment; for activity/unit mass: mean c350 x mw (Na salt); for concentration upon which a T50 of 350 min is reached (c350), mean: mean of n experiments; for concentration upon which a T50 of 350 min is reached (c350), single experiment: one value per experiment (lab journal reference E05-E40)
Method: The compounds were ranked for calcification inhibition activity using a nanoparticle-based test, developed for risk stratification, which measures the propensity for calcification in patient serum. […] The time, after which 50% of CPP phase transition occurred (T50), was assessed by time-resolved spectrophotometry at 550 nm (Supplementary Fig. 1a).
The screening assay was performed as described previously. In brief, pooled human serum (H4522, Sigma-Aldrich) stored at −20 °C was thawed at 37 °C, centrifuged (10,000 × g, and 4 °C, 30 min) (5427R, Eppendorf, Switzerland), and sterile filtered (0.22 μm filter, Millipore, Merck KGaA) to remove potential cryoprecipitates (cleared human serum). The calcium solution was 40 mM CaCl2 (102382, Merck KGaA) in HBS, pH 7.4 (RT) (100 mM HEPES (H3375, Sigma-Aldrich) and 140 mM NaCl (1734712, Fisher Scientific, Hampton, NH, USA)). […] All salt solutions and buffers were double sterile filtered (0.22 µm) and pre-warmed to 37 °C prior to use. […] The plate was sealed with an adhesive film and the absorption at 550 nm was measured every 3 min with 1 min in-between shaking for a total of 300 cycles at 37 °C using the infinite M200 microplate reader (Tecan, Männedorf, Switzerland). An A550 vs. time graph was generated and T50 (min) (time at half-maximum transition from CPP1 to CPP2) values were derived by sigmoidal curve fit using Prism 8 (nonlinear regression in the log(agonist) vs. response–variable slope (four parameter mode) using the robust fit fitting method, GraphPad Software, San Diego, CA, USA). Activities between compounds were compared by generating a T50 (min) vs. concentration (µM) graph, calculating nonlinear regression and deriving the concentration required to delay T50 to 350 min (c350) using a standard equation for the dose–response curve, Eq. (1), whereby x = [compound], y = time (min), bottom = baseline response, top = maximum response, T50 = [drug] that leads to half-maximum response, and the hill slope is a factor that describes the steepness of the curve.1 y= bottom+top - bottom/1+T50/x^hillslope.

[2] = molecular target: CPP2; test: Competitive 18F-NaF binding assay on CPPs; design: species or system human
Method: A ^18F-NaF-based competitive binding assay was developed to indirectly assess the inhibitor affinity (IC50) to CPPs. The uptake mechanism of ^18F-NaF, a marker of micro-calcification activity by chemisorption onto hydroxyapatite crystals, is contingent on the rapid exchange of hydroxyl (OH^−) groups present on the hydroxyapatite surface (Ca5(PO4)3(OH)) by ^18F^− to form fluoroapatite (Ca5(PO4)3^18F)[34],[54].
Triplicate aliquots of CPP2s (20 µg Ca/mL) in 100 μL assay buffer (100 mM HBS, pH 7.4 (RT)) were incubated for 1 h at RT in the presence of increasing concentrations of compounds in 50 μL Milli-Q water and ^18F-NaF (1 nM) in 50 μL assay buffer, resulting in a total incubation volume of 200 μL (^18F-NaF was prepared using a FASTlab synthesizer (GE Healthcare, Little Chalfont, UK) and commercially available ^18F-NaF cassettes (GE Healthcare)). Maximum radiotracer binding was determined by incubating CPP2s with ^18F-NaF (1 nM) only. The reaction was terminated by rapid filtration through a SOLAμ™ SPE plate (HRP 2 mg/mL 96-well plate, 22 μm; Thermo Fisher Scientific). SPE individual column matrices were washed twice rapidly in assay buffer and radioactivity on the filters determined by an automatic gamma counter (Wizard2 Gamma Counter, Perkin Elmer, Waltham, MA, USA). […] IC50 is the concentration of […] that gives a response half way between the bottom and top parts of the curve. ^18F-NaF micro-PET/computed tomography (micro-PET/CT) was employed for ex vivo analysis of (OEG2)2-IP4’s engagement to target calcified human tissue explants, as described previously. […] Following incubations, samples were washed twice in 0.1 M PBS (1 min per wash) and mounted on a Petri dish for micro-PET/CT imaging (nanoPET/CT, Mediso, Budapest, Hungary). In total, seven samples from the femoral arteries of three patients with ischemic peripheral disease and three samples from native aortic valves of three patients undergoing valve replacement surgery were used. All samples were collected at the time of surgery and stored in 4% paraformaldehyde at RT until further use. All patients gave their written, informed consent. All procedures had local ethical approval (06/S0703/110, 12/WS/0227, 09/S0703/118, and 12/NW/0036). All studies were approved by East and West Scotland Research Ethics Committees, and all experiments were conducted according to the principles expressed in the Declaration of Helsinki.

[3] = Serum calcification propensity assay after 4.5 h incubation in enzymatically active human serum; settings: compound at c350 concentration, 37 °C; individual donors, Fig. 2e

SMILES: NCCCC(O)(P(=O)(O)O)P(=O)(O)O [Alendronate, alendronate]
- T50 ([1]; concentration 0.3 μM): 213.8 and 221.6 and 208.733 and 230.4 and 221.333 and 196.833
- T50 ([1]; concentration 1 μM): 222.967 and 230.933 and 225.333 and 238.6 and 229.833 and 230.667
- T50 ([1]; concentration 3 μM): 261.733 and 253 and 230.467 and 264.833 and 255.1 and 255.367
- T50 ([1]; concentration 10 μM): 345.567 and 345.233 and 327.433 and 380.1 and 360.1 and 348.633
- T50 ([1]; concentration 30 μM): 770.3 and 707.4
- activity/unit mass [1]: 2.69 mg/L
- concentration upon which a T50 of 350 min is reached (c350), mean [1]: 9.9 µM
- concentration upon which a T50 of 350 min is reached (c350), single experiment [1]: 9.9 µM and 10.3 µM and 8.3 µM and 9.4 µM and 10.2 µM
- IC50 ([2]; CPP2 20 µg Ca/mL, 18F-NaF 1 nM, 1 h RT, read-out: IC50 (reduction of 18F binding to CPP)): 900 nM
- 18F-NaF percentage binding to CPP2 ([2]; concentration 0.75 (unit not given)): 116.838% and 100.543% and 117.872%
- 18F-NaF percentage binding to CPP2 ([2]; concentration 2.5 (unit not given)): 108.056% and 108.706% and 117.126%
- 18F-NaF percentage binding to CPP2 ([2]; concentration 7.5 (unit not given)): 96.3113% and 120.411% and 97.661%
- 18F-NaF percentage binding to CPP2 ([2]; concentration 25 (unit not given)): 95.6416% and 106.619%
- 18F-NaF percentage binding to CPP2 ([2]; concentration 75 (unit not given)): 102.247% and 106.699% and 103.897%
- 18F-NaF percentage binding to CPP2 ([2]; concentration 250 (unit not given)): 99.9294% and 104.809% and 85.4465%
- 18F-NaF percentage binding to CPP2 ([2]; concentration 1750 (unit not given)): 35.8884% and 43.4211% and 42.6767%
- 18F-NaF percentage binding to CPP2 ([2]; concentration 2500 (unit not given)): 62.647% and 51.2379% and 44.8192%
- 18F-NaF percentage binding to CPP2 ([2]; concentration 7500 (unit not given)): 62.7542% and 48.4658% and 45.2944%
- 18F-NaF percentage binding to CPP2 ([2]; concentration 25000 (unit not given)): 44.4078% and 32.6852% and 32.8795%
- 18F-NaF percentage binding to CPP2 ([2]; concentration 75000 (unit not given)): 35.0722% and 24.2405% and 29.2905%
- 18F-NaF percentage binding to CPP2 ([2]; concentration 250000 (unit not given)): 26.7145% and 19.4967% and 18.0105%
- 18F-NaF percentage binding to CPP2 ([2]; concentration 750000 (unit not given), replicates Fig. 2c): 36.7136% and 30.5284% and 26.7151%

SMILES: COCCOCCOCCOCCOCCOCCOCCOCCOCCOCCOCCO[C@@H]1[C@@H](OP(=O)(O)O)[C@H](OCCOCCOCCOCCOCCOCCOCCOCCOCCOCCOCCOC)[C@@H](OP(=O)(O)O)[C@@H](OP(=O)(O)O)[C@H]1OP(=O)(O)O [(OEG11)2-IP4, 4,6-Di-O-(methoxy-undecaethyleneglycol)-myo-inositol-1,2,3,5-tetrakis(phosphate)]
- T50 ([1]; concentration 0.3 μM): 225.5 and 216.3 and 217.233
- T50 ([1]; concentration 1 μM): 254.967 and 243.067 and 240.833
- T50 ([1]; concentration 3 μM): 330.833 and 306.033 and 295.1
- T50 ([1]; concentration 5 μM): 429.233 and 399.933 and 420.733
- fold greater molar activity in delaying serum calcification propensity than IP6 ([1]; from c350): ~10 fold
- activity/unit mass [1]: 6.28 mg/L
- concentration upon which a T50 of 350 min is reached (c350), mean [1]: 3.8 µM
- concentration upon which a T50 of 350 min is reached (c350), single experiment [1]: 3.4 µM and 3.9 µM
- ΔT50 after 4.5 h vs 0 h incubation in enzymatically active human serum [3]: -7 min and 2 min and 28 min and -24 min
